Data on one molecule can be found in patent publication US4916126A, “Diacyl derivatives of 4-(trialkylbenzyl)-piperazinyl compounds” (Ciba-Geigy Corporation, priority 1988, dated 1990).

The test system of experiment [1] is serum lipoproteins (VLDL, LDL and HDL). Description: reduction of serum lipoproteins (VLDL, LDL and HDL) in genetically hypercholesterolaemic rats (procedure A) and normolipaemic rats (procedure B). It counts as in vivo. The following applies: repeated administration of 30 mg/kg daily, oral. As for the experimental part: In contrast, the diacyl compounds of the present invention have, if at all, only a marginal antibiotic action.
Albino rats having a body weight of from 180 to 240 g and having free access to normal rat food and drinking water are used, Sprague Dawley derivatives of the strain Tif:RAI in procedure A and animals of the Wistar strain IVa-WI in procedure B. The test compound is administered orally in a polyethylene glycol solution (average molecular weight 400) to groups of from 8 to 10 rats, in procedure A once daily at 8 a.m. for three consecutive days and twice, at 8 a.m. and 4 p.m., on the fourth day, and in the case of procedure B, daily for 5 consecutive days. In experiment A the animals are sacrificed 16 hours, and in experiment B two hours, after the final administration by bleeding from the neck under anaesthesia with ether. The animals are given no food during the 16 hours before they are sacrificed. […] The serum lipoproteins are separated using an unltracentrifuge by means of 24-hour centrifugation at 78,000 g, 78,000 g and 109,000 g in salt solutions having densities of 1.006, 1.040 and 1.21, respectively, and are analysed enzymatically for their content of cholesterol and triglycerides using the test systems supplied, for example, by Miles (Lausanne, Switzerland) and Bohringer (Mannheim, Federal Republic of Germany).

Experiment [2] has as its target RNA polymerase of Escherichia coli (Escherichia coli, UniProt P0A8V2). Nature of the experiment: inhibition of the RNA polymerase of Escherichia coli in vitro. Type of experiment: biochemical. The following applies: not achieved even with 100 μg/ml. The text has this: The antibiotic action is ascertained, for example, on the one hand in vitro by determining the mean effective concentration EC50 for the inhibition of the RNA polymerase of Escherichia coli and by determining the minimum inhibitory concentration MIC in a conventional plate test, and on the other hand in vivo, using infected mice and rats, by determining the ED50 (effective dose that ensures the survival of 50% of the experimental animals). There are used as micro-organisms for the present purpose especially Mycobacterium tuberculosis TB H37 Rv and Staphylococcus aureus. In the case of compounds having a lipid-reducing indication, an antibiotic activity is regarded as disadvantageous since it can result in the formation of strains of micro-organisms that are resistant to antibiotics, especially when the compounds are administered over a prolonged period.

Experiment [3] has as its system Staphylococcus aureus. Description: minimum inhibitory concentration in a conventional plate test. Type of experiment: cell-based. The following applies: read-out: MIC for various pathogenic strains of Staphylococcus aureus.
Experiment [4] relates to Staphylococcus aureus. Nature of the experiment: in vivo antibiotic action in mice infected with Staphylococcus aureus. The following applies: single dose of 200 mg/kg.
Experiment [5] has as its system Mycobacterium tuberculosis TB H37 Rv and Staphylococcus aureus. Description: antibiotic action, in vitro and in vivo tests as a whole.

Molecules are shown by their SMILES. In brackets after ≈: the same amount, converted by molar mass. Bounds are passed on as bounds.

In general, EC50 refers to the concentration giving half of the maximal effect. A higher EC50 goes with weaker potency. By MIC is commonly meant the smallest concentration in the dilution series that meets the test's criterion for growth inhibition.

Chain of RNA polymerase of Escherichia coli (P0A8V2 whole entry): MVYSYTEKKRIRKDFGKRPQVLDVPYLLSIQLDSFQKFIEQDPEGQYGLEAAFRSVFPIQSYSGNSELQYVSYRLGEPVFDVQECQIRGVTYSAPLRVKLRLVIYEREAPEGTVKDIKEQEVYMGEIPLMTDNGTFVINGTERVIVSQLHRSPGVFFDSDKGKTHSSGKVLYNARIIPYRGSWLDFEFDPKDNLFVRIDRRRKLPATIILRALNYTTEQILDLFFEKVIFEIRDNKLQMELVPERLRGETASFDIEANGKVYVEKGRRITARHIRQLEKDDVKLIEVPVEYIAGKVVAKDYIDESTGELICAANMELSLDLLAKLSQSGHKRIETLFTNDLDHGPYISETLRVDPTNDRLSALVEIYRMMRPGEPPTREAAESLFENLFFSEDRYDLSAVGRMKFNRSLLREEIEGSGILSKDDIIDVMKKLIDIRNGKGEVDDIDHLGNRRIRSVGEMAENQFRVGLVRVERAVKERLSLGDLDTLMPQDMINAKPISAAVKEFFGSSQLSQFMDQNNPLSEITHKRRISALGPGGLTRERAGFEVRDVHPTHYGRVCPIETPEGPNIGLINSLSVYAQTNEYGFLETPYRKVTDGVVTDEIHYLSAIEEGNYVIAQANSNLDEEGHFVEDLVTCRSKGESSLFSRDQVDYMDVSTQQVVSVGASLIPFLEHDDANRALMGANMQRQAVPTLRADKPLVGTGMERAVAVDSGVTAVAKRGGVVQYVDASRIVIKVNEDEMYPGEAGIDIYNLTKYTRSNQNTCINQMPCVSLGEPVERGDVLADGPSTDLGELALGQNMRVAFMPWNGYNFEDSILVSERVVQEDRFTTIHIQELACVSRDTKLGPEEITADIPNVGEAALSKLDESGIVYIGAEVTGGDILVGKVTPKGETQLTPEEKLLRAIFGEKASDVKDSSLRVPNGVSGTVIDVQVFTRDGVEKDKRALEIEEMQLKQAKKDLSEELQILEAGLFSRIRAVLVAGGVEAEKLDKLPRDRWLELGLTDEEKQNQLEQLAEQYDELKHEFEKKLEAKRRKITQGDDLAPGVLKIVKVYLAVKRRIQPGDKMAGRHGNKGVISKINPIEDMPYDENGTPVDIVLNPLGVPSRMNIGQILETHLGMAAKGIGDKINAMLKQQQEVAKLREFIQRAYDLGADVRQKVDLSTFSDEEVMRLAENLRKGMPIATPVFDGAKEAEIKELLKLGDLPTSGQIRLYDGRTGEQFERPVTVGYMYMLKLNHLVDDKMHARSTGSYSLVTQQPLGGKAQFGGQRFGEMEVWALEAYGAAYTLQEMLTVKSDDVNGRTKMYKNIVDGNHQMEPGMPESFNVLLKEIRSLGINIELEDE
Chain of RNA polymerase of Escherichia coli (P0A8T7 whole entry partner): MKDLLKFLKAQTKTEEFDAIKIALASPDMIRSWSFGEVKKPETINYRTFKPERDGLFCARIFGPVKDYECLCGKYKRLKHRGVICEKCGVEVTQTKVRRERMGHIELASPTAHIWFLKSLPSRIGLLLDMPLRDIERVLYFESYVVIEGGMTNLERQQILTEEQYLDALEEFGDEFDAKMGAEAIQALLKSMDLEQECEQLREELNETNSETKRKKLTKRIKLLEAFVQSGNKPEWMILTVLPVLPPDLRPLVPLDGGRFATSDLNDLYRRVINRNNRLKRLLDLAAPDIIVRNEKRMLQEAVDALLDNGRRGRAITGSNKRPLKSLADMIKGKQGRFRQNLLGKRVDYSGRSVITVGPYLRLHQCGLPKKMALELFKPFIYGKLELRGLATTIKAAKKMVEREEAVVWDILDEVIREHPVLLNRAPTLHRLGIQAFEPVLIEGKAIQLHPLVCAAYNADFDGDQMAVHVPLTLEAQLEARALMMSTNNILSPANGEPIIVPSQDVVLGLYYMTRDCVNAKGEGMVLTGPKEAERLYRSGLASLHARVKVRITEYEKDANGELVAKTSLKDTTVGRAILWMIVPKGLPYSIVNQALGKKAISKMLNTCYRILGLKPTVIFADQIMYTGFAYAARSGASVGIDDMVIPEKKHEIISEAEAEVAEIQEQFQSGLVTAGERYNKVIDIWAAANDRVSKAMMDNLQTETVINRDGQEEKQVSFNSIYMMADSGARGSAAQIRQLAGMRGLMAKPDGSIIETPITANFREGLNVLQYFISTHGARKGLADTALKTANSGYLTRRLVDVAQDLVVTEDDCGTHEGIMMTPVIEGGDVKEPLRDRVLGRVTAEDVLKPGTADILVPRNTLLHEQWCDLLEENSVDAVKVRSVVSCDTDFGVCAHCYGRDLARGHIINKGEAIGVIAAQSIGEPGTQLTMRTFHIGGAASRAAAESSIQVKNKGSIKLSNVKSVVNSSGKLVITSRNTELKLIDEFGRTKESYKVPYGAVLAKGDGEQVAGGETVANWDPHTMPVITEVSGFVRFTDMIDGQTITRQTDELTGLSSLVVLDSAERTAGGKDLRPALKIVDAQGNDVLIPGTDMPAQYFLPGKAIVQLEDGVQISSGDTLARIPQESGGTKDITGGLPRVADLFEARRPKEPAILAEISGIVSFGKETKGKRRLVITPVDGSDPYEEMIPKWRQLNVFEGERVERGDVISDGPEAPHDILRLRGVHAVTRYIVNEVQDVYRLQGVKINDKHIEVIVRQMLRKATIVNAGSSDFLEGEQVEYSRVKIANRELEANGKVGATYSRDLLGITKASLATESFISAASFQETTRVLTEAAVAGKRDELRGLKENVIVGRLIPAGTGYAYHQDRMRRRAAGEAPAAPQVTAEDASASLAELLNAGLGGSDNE
Chain of RNA polymerase of Escherichia coli (P0A7Z4 whole entry partner): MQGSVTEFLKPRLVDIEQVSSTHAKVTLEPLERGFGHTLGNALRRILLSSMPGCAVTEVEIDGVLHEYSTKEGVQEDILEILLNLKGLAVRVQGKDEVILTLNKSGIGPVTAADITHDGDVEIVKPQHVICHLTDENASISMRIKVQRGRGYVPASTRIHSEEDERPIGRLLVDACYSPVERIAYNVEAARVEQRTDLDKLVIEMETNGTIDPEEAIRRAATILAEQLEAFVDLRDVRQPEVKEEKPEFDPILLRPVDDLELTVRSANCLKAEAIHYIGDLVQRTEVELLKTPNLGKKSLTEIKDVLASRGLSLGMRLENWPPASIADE
Chain of RNA polymerase of Escherichia coli (P0A800 2-91 partner limits assumed): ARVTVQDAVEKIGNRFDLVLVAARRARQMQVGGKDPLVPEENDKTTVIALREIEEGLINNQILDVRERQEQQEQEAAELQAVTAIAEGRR

Take `COC1C=COC2(C)Oc3c(C)c(OC(=O)C(C)(C)C)c4c(c3C2=O)C(=O)C(N2CCN(Cc3c(C)cc(C)cc3C)CC2)=C(C4=O)N(C(=O)C(C)(C)C)C(=O)C(C)=CC=CC(C)C(O)C(C)C(O)C(C)C(OC(C)=O)C1C` (stereo not drawn) [8-O,N-dipivaloyl-3-[4-(2,4,6-trimethylbenzyl)-1-piperazinyl]-rifamycin S]: in experiment [1], the “reduction in the "LDL fraction"” value is recorded as 50-70%. This molecule showed a concentration for a half-maximal effect (EC50) in experiment [2] above 92.6 µM. Moreover, the MIC in experiment [3] is around 64 µg/mL (≈ 59.2 µM). Moreover, in experiment [4], the “antibiotic activity in vivo” value is “antibiotically inactive”. Besides, the antibiotic activity result in experiment [5] (overall statement) is on record as “practically no antibiotic activity”. For the same molecule, in experiment [5] (refers to RNA polymerase EC50 and Staphylococcus aureus MIC), the “EC50 and MIC values relative to concentrations normally necessary for a corresponding effect” value is recorded as “approximately 1000 times”.
